{"source": "patent US20170281575A1", "about": "“BLT2 AGONISTS FOR THE TREATMENT OF PAIN” (FRAUNHOFER-GESELLSCHAFT ZUR FÖERDERUNG DER ANGEWANDTEN …, priority 2014, published 2017)", "key": {"TRPV1": {"test_system": "TRPV1", "test": "Calcium imaging of capsaicin double-stimulated DRG neurons (TRPV1 sensitization)", "type": "cell-based, murine", "conditions": "for effect on TRPV1 sensitization by LTB4 (100 nM or 1 μM), FIG. 3 legend: U73502 1 μM; for effect on TRPV1 sensitization by LTB4 (100 nM or 1 μM), FIG. 3 legend / effect on TRPV1 sensitization induced by 100 nM LTB4: CAY10583 400 nM; for effect on TRPV1 sensitization induced by 100 nM LTB4: U75302 1 μM, 2 minute pretreatment", "procedure": "(A) DRG neurons were double stimulated with capsaicin (200 nM, 15 s each) and incubated with either vehicle or LTB4 (100 nM) for two minutes prior to the second capsaicin stimulation. (B) Dose-dependent difference in ratio between the first and the second capsaicin response using the same protocol as described in (A). Data represent the mean±SEM of the following number of neurons (n=20-86); ANOVA Kruskal-Wallis test; Dunn's multiple comparisons test *p<0.05, ****p<0.0001 student's t-test.\nFIG. 3: BLT1 mediates TRPV1-sensitization and BLT2 mediates TRPV1-desensitization by LTB4. (A) DRG neurons were double stimulated with capsaicin (200 nM, 15 s each) and incubated with either vehicle or the indicated compounds for two minutes prior to the second capsaicin stimulation. […] Data represent mean±SEM 20-105 cells. ANOVA Kruskal-Wallis test; Dunn's multiple comparisons test *p<0.05, **p<0.01, ****p<0.0001 student's t-test; n.s. not significant.\nFIG. 4: BLT2 activation inhibits […] by EP4 and Bradykinin. (A) DRG neurons were double stimulated with capsaicin (200 nM, 15 s each) and incubated with either the EP4 agonist ONOae329 (500 nM) or with ONOae329 and CAY10583 (400 nM) together for two minutes prior to the second capsaicin stimulation. (B) Difference in ratio between the first and the second capsaicin response using the same protocol as described in panel A. Data represent the mean±SEM of the following number of neurons: 52 (vehicle), 109 (ONOae329), 106 (ONOae329+CAY10583); One-Way ANOVA, Dunn's multiple comparisons test; **p<0.0096. (C+D) same as panel A+B except that 500 nM bradykinin was used for TRPV1 sensitization. Data represent the mean±SEM of the following number of neurons: 33 (vehicle), 83 (bradykinin), 93 (bradykinin+CAY10583); One-Way ANOVA, Holm-Sidak's multiple comparisons test; *p=0.0126\nMurine DRGs were dissected from spinal segments and directly transferred to ice cold HBSS with CaCl2 and MgCl2 (Invitrogen, Carsbad, Calif., USA). Next, isolated DRGs were incubated with collagenase/dispase (500 U/ml Collagenase; 2.5 U/ml Dispase) in neurobasal medium containing L-glutamine [2 mM] penicillin (100 U/ml), streptomycin (100 μg/ml), B-27 and gentamicin (50 μg/ml) (all from Invitrogen, Carlsbad, Calif., USA) at 37° C. for 75 min. After removal of the collagenase/dispase-solution, cells were washed twice with neurobasal medium containing 10% FCS and incubated for 10 min with 0.05% trypsin (Invitrogen, Carlsbad, Calif., USA). The washing steps were repeated and the cells were mechanically dissociated with a 1 ml Gilson pipette. Finally, the neurons were plated on poly-l-lysine (Sigma, Deisenhofen, Germany) coated glass cover slips and incubated with neurobasal medium containing L-glutamine [2 mM] penicillin (100 U/ml), streptomycin (100 μg/ml), B-27 and gentamicin (50 μg/ml) over night until assessment by calcium imaging.\nCalcium-Imaging experiments were performed as published previously. Briefly, Leica Calcium-imaging setup was used, consisting of a Leica DMI 4000 b inverted microscope equipped with a DFC360 FX (CCD-) camera, Fura-2 filters and an N-Plan 10×/0.25 Ph1 objective (all from Leica Microsystems, Wetzlar, Germany). Images were taken every 2 seconds and processed with the LAS AF-software. For each experiment the inventors chose an area with large cell numbers and monitored 40-110 cells simultaneously. Calcium-Imaging experiments were performed using DRG-neurons 24-48 hours after preparation. […]"}, "mice": {"test_system": "mice", "test": "Thermal pain thresholds after intraplantar injection (Hargreaves, radiant heat)", "type": "in vivo", "conditions": "CAY10583 10 μl, 5 μM intraplantarly, compared to vehicle", "procedure": "FIG. 5: BLT2 activation decreases thermal pain thresholds in mice. CAY10583 (10 μl, 5 μM) or vehicle was administered intraplantarly. Thermal thresholds were determined at the indicated time points. Data are presented as mean±S.E.M. of 6 animals. Two way ANOVA/Bonferroni *P<0.05, **P<0.005, ****P<0.0005.\nAll animal experiments were performed according to the recommendations in the Guide for the Care and Use of Laboratory Animals of the National Institutes of Health and approved by the local Ethics Committees for Animal Research (Darmstadt). For all behavioral experiments the inventors used only 6-12 weeks old male C57BL/6N mice purchased from commercial breeding companies (Charles River, Sulzfeld, Germany, Janvier, Le Geneset-Saint-Isle, FR). To compare mechanical thresholds the inventors used age and sex matched littermates as control.\nFor the determination of mechanical allodynia or thermal hypersensitivity, mice were kept in test cages on an elevated grid for at least 2 hours to allow accommodation. […] The non-injected and injected paws were measured alternately in intervals of 5-10 min. […]"}, "[1]": {"conditions": "DRG neurons, capsaicin 200 nM, LY2552833 10 μM"}}, "data": [{"compound": "CCCCC(=O)N(Cc1ccc(-c2ccccc2C(=O)O)cc1)c1ccccc1", "note": "[CAY10583, 4′-[[(1-oxopentyl)phenylamino]methyl]-[1,1′-biphenyl]-2-carboxylic acid]", "values": [{"measurement": "effect on bradykinin-induced sensitization of TRPV1 through PKC", "setting": "TRPV1; DRG neurons, 500 nM bradykinin with CAY10583 400 nM", "value": "significantly decreased"}, {"measurement": "effect on TRPV1 sensitization by LTB4 (100 nM or 1 μM), FIG. 3 legend", "setting": "TRPV1; DRG neurons, LY2552833 10 μM", "value": "reduced"}, {"measurement": "effect by itself on capsaicin-induced TRPV1 activation", "setting": "TRPV1; DRG neurons, capsaicin 200 nM, CAY10583 400 nM alone", "value": "no effect"}, {"measurement": "effect on TRPV1 sensitization induced by 100 nM LTB4", "setting": "TRPV1; [1]", "value": "abolished"}, {"measurement": "effect on ONOae329-induced TRPV1 sensitization", "setting": "TRPV1; murine DRG neurons, ONOae329 500 nM together with CAY10583 400 nM", "value": "abolished"}, {"measurement": "thermal pain thresholds", "setting": "mice", "value": "significantly increase"}]}, {"compound": "CCCCC/C=C\\C[C@@H](O)/C=C/C=C/C=C\\[C@@H](O)CCCC(=O)O", "note": "[LTB4, Leucotriene (LT) B4]", "values": [{"measurement": "TRPV1 sensitization in DRG neurons, dose dependence, FIG. 1 legend", "setting": "TRPV1; DRG neurons, capsaicin 200 nM double stimulation", "value": "dose dependently sensitizes TRPV1"}, {"measurement": "enhanced response (TRPV1 sensitization) at higher LTB4 concentrations", "setting": "TRPV1; murine DRG neurons, 200-1000 nM LTB4 prior to second capsaicin stimulation", "value": "reduced"}, {"measurement": "capsaicin-induced intracellular calcium increases", "setting": "TRPV1; murine DRG neurons, preincubation with 100 nM LTB4 for two minutes prior to second capsaicin (200 nM) stimulation", "value": "doubled"}]}, {"compound": "CCc1cc(C(C)=O)c(O)cc1OCCCCCC(C)(C)c1nn[nH]n1", "note": "[LY2552833]", "values": [{"measurement": "effect on TRPV1 sensitization by LTB4 (100 nM or 1 μM), FIG. 3 legend", "setting": "TRPV1; DRG neurons, LY2552833 10 μM", "value": "increases TRPV1 sensitization"}, {"measurement": "effect on TRPV1 sensitization by 1000 nM LTB4", "setting": "TRPV1; [1]", "value": "increased"}, {"measurement": "effect on TRPV1 sensitization induced by 100 nM LTB4", "setting": "TRPV1; [1]", "value": "no significant effect"}]}, {"compound": "COCc1ccccc1CC[C@H](O)/C=C/[C@H]1[C@H](O)CC(=O)[C@@H]1SCCCSCC(=O)O", "note": "[ONOae329]", "values": [{"measurement": "sensitization of TRPV1 responses to capsaicin", "setting": "TRPV1; murine DRG neurons, pretreatment with ONOae329 500 nM", "value": "strong sensitization"}]}, {"compound": "CCCCC/C=C\\C[C@@H](O)/C=C/c1cccc(C[C@@H](O)CCCCO)n1", "note": "[U75302, 6-(6-(3R-hydroxy-1E,5Z-undecadien-1-yl)-2-pyridinyl)-1,5S-hexanediol]", "values": [{"measurement": "effect on TRPV1 sensitization by LTB4 (100 nM or 1 μM), FIG. 3 legend", "setting": "TRPV1; DRG neurons, LY2552833 10 μM", "value": "reduced"}, {"measurement": "effect on TRPV1 sensitization induced by 100 nM LTB4", "setting": "TRPV1; [1]", "value": "able to abolish"}]}]}
